Here are results for 53 compounds from patent US11266643B2, “Triaryl compounds for treatment of PD-L1 diseases” (CHEMOCENTRYX, INC., priority 2019, dated 2022).

One may read the IC50 as the midpoint of a concentration-inhibition curve. Read a high IC50 as a need for much substance.

The target in this assay is human PD-L1 (Homo sapiens (Human), UniProt Q9NZQ7). The assay can be described thus: Enzyme-Linked Immunosorbent Assay (ELISA), PD-1/PD-L1 binding. As to conditions: plate-coated human PD-L1, biotinylated Human PD-1, absorbance at 450 nm. The essentials: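 Competitive ELISA: human PD-1 […] (0.31 μg/mL) and serially diluted compounds (1:5) incubated 1 h at 37° C on wells coated with […] human PD-L1. Signal via streptavidin-HRP/TMB, stopped with 2 N H2SO4, measured as A450.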
Sequence of human PD-L1 (Q9NZQ7 19-239): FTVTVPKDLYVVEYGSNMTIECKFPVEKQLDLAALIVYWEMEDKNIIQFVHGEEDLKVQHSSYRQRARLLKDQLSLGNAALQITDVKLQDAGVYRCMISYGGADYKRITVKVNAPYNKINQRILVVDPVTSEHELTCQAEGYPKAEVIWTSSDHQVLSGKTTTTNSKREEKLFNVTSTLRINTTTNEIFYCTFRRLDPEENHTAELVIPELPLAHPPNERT
`COc1cc(-c2cccc(-c3cccc(NC(=O)c4cn(C)c(=O)n(C)c4=O)c3C)c2C)cc(F)c1CN1CC(C(=O)O)C1` [Example 2.014] returned an IC50 below 0.01 µM. `COc1cc(-c2cccc(-c3cccc(NC(=O)c4cn(C)c(=O)n(C)c4=O)c3C)c2Cl)cc(F)c1CN1CCC[C@@H](C(=O)O)C1` [Example 2.015]: the IC50 is below 0.01 µM. To `COc1cc(-c2cccc(-c3cccc(NC(=O)c4cn(C)c(=O)n(C)c4=O)c3C)c2Cl)cc(F)c1CN1CC[C@@H](O)C1` [Example 2.016] belongs below 0.01 µM; to `COc1cc(-c2cccc(-c3cccc(NC(=O)c4cn(C)c(=O)n(C)c4=O)c3C)c2Cl)cc(F)c1CN1CC(C)(C(=O)O)C1` [Example 2.017], below 0.01 µM; to `COc1cc(-c2cccc(-c3cccc(NC(=O)c4cn(C)c(=O)n(C)c4=O)c3C)c2Cl)cc(F)c1CN1CCC(C)(O)CC1` [Example 2.018], below 0.01 µM. In turn, `COc1cc(-c2cccc(-c3cccc(NC(=O)c4cn(C)c(=O)n(C)c4=O)c3C)c2Cl)cc(F)c1CN1CCC(C(=O)O)CC1` [Example 2.019] registered a concentration for half-maximal inhibition (IC50) below 0.01 µM.

`COc1cc(-c2cccc(-c3cccc(NC(=O)c4cn(C)c(=O)n(C)c4=O)c3C)c2Cl)cc(F)c1CN1CCC(O)CC1` [Example 2.020] yielded an IC50 below 0.01 µM. Then `COc1cc(-c2cccc(-c3cccc(NC(=O)c4cn(C)c(=O)n(C)c4=O)c3C)c2Cl)cc(F)c1CN1CC[C@@H](C(=O)O)C1` [Example 2.021], with below 0.01 µM; and `COc1cc(-c2cccc(-c3cccc(NC(=O)c4c[nH]c(=O)n(C)c4=O)c3Cl)c2Cl)cc(F)c1CN[C@H]1CCOC[C@H]1OC` [Example 2.022], with below 0.01 µM.

The compound `COc1cc(-c2cccc(-c3cccc(NC(=O)c4c[nH]c(=O)n(C)c4=O)c3C)c2Cl)cc(F)c1CN[C@H]1CCOC[C@H]1OC` [Example 2.023] yielded an IC50 below 0.01 µM. As for `COc1cc(-c2cccc(-c3cccc(NC(=O)c4cn(C)c(=O)n(C)c4=O)c3C)c2Cl)cc(F)c1CN[C@H]1CCOC[C@H]1OC` [Example 2.024], the IC50 is below 0.01 µM. As for `COc1cc(-c2cccc(-c3cccc(NC(=O)c4cn(C)c(=O)n(C)c4=O)c3Cl)c2Cl)cc(F)c1CN[C@H]1CCOC[C@H]1OC` [Example 2.025], the IC50 is below 0.01 µM. Then `COc1cc(-c2cccc(-c3cccc(NC(=O)c4c[nH]c(=O)n(C)c4=O)c3Cl)c2Cl)cc(F)c1CNCC1(C(N)=O)CC1` [Example 2.026], with below 0.01 µM. The compound `COc1cc(-c2cccc(-c3cccc(NC(=O)c4c[nH]c(=O)n(C)c4=O)c3Cl)c2Cl)cc(F)c1CN[C@H]1CCC(=O)NC1` [Example 2.027] showed a concentration for half-maximal inhibition (IC50) below 0.01 µM.

`COc1cc(-c2cccc(-c3cccc(NC(=O)c4c[nH]c(=O)n(C)c4=O)c3Cl)c2Cl)cc(F)c1CN[C@H]1CCOC[C@H]1O` [Example 2.029] yielded an IC50 below 0.01 µM. To `COc1cc(-c2cccc(-c3cccc(NC(=O)c4c[nH]c(=O)n(C)c4=O)c3Cl)c2Cl)cc(F)c1CN[C@@H]1CCOC[C@@H]1O` [Example 2.030] belongs below 0.01 µM; to `COc1cc(-c2cccc(-c3cccc(NC(=O)c4c[nH]c(=O)n(C)c4=O)c3C)c2Cl)cc(F)c1CNCC1(C(N)=O)CC1` [Example 2.031], below 0.01 µM. To `COc1cc(-c2cccc(-c3cccc(NC(=O)c4c[nH]c(=O)n(C)c4=O)c3C)c2Cl)cc(F)c1CN[C@H]1CCC(=O)NC1` [Example 2.032] belongs below 0.01 µM; to `COc1cc(-c2cccc(-c3cccc(NC(=O)c4c[nH]c(=O)n(C)c4=O)c3C)c2Cl)cc(F)c1CN[C@@H]1CNC(=O)C1` [Example 2.033], below 0.01 µM; to `COc1cc(-c2cccc(-c3cccc(NC(=O)c4c[nH]c(=O)n(C)c4=O)c3C)c2Cl)cc(F)c1CN[C@H]1CCOC[C@H]1O` [Example 2.034], below 0.01 µM. To `COc1cc(-c2cccc(-c3cccc(NC(=O)c4c[nH]c(=O)n(C)c4=O)c3C)c2Cl)cc(F)c1CN[C@@H]1CCOC[C@@H]1O` [Example 2.035] belongs below 0.01 µM; to `CCOc1cc(-c2cccc(-c3cccc(NC(=O)c4cn(C)c(=O)n(C)c4=O)c3Cl)c2Cl)cc(F)c1CN[C@H]1CCC(=O)NC1` [Example 2.036], below 0.01 µM. `CCOc1cc(-c2cccc(-c3cccc(NC(=O)c4cn(C)c(=O)n(C)c4=O)c3Cl)c2Cl)cc(F)c1CN[C@@H]1CCOC[C@@H]1O` [Example 2.037] came in with a half-maximal inhibitory concentration (IC50) below 0.01 µM. To `CCOc1cc(-c2cccc(-c3cccc(NC(=O)c4cn(C)c(=O)n(C)c4=O)c3C)c2Cl)cc(F)c1CN[C@H]1CCC(=O)NC1` [Example 2.038] belongs 0.01 to 1 µM; to `CCOc1cc(-c2cccc(-c3cccc(NC(=O)c4cn(C)c(=O)n(C)c4=O)c3C)c2Cl)cc(F)c1CN[C@@H]1CCOC[C@@H]1O` [Example 2.039], below 0.01 µM; to `COc1cc(-c2cccc(-c3cccc(NC(=O)c4cncn(C)c4=O)c3C)c2Cl)cc(F)c1CN[C@H]1CCC(=O)NC1` [Example 2.041], below 0.01 µM. To `COc1cc(-c2cccc(-c3cccc(NC(=O)c4cncn(C)c4=O)c3C)c2Cl)cc(F)c1CN[C@@H]1CCOC[C@@H]1O` [Example 2.042] belongs below 0.01 µM; to `COc1cc(-c2cccc(-c3cccc(NC(=O)c4cn(C)c(=O)n(C)c4=O)c3C)c2Cl)cc(F)c1CN(C)[C@@H]1CCOC1` [Example 2.043], below 0.01 µM; to `COc1cc(-c2cccc(-c3cccc(NC(=O)c4cn(C)c(=O)n(C)c4=O)c3C)c2Cl)cc(F)c1CNCC(C)(C)O` [Example 2.045], below 0.01 µM.

`COc1cc(-c2cccc(-c3cccc(NC(=O)c4cn(C)c(=O)n(C)c4=O)c3C)c2Cl)cc(F)c1CN1CC(C(=O)O)C1` [Example 2.046]: the IC50 is below 0.01 µM.

`COc1cc(-c2cccc(-c3cccc(NC(=O)c4cn(C)c(=O)n(C)c4=O)c3C)c2Cl)cc(F)c1CN1CCCC[C@H]1C(=O)O` [Example 2.047]: the IC50 was below 0.01 µM. To `CCOc1cc(-c2cccc(-c3cccc(NC(=O)c4cn(C)c(=O)n(C)c4=O)c3C)c2Cl)ccc1CN[C@@H]1CCOC[C@@H]1O` [Example 2.048] belongs below 0.01 µM. Then `COc1cc(-c2cccc(-c3cccc(NC(=O)c4cn(C)c(=O)n(C)c4=O)c3C)c2Cl)cnc1CN[C@@H]1CCOC[C@@H]1O` [Example 2.049], with below 0.01 µM; and `COc1cc(-c2cccc(-c3cccc(NC(=O)c4cn(C)c(=O)n(C)c4=O)c3C)c2Cl)cc(F)c1CNC1(C)CCOCC1` [Example 2.050], with below 0.01 µM. Then `COc1cc(-c2cccc(-c3cccc(NC(=O)c4cn(C)c(=O)n(C)c4=O)c3C)c2Cl)cc(F)c1CN[C@@H]1CCC[C@@H]1O` [Example 2.051], with below 0.01 µM; and `COc1cc(-c2cccc(-c3cccc(NC(=O)c4cn(C)c(=O)n(C)c4=O)c3C)c2Cl)cc(F)c1CN[C@@H]1CCC[C@H]1O` [Example 2.052], with below 0.01 µM; and `COc1cc(-c2cccc(-c3cccc(NC(=O)c4cn(C)c(=O)n(C)c4=O)c3C)c2Cl)cc(F)c1CN[C@H]1CCC[C@H]1O` [Example 2.053], with below 0.01 µM. `COc1cc(-c2cccc(-c3cccc(NC(=O)c4cn(C)c(=O)n(C)c4=O)c3C)c2Cl)ccc1CN[C@@H]1CCOC[C@@H]1O` [Example 2.054]: the 50% inhibitory concentration (IC50) is below 0.01 µM. Then `COc1cc(-c2cccc(-c3cccc(NC(=O)c4cn(C)c(=O)n(C)c4=O)c3Cl)c2Cl)cc(F)c1CN(C)[C@H]1CNC(=O)C1` [Example 2.055], with 0.01 to 1 µM. Then `COc1cc(-c2cccc(-c3cccc(NC(=O)c4cn(C)c(=O)n(C)c4=O)c3C)c2Cl)cc(F)c1CNCC1(O)CC1` [Example 2.056], with below 0.01 µM. In turn, `COc1cc(-c2cccc(-c3cccc(NC(=O)c4cn(C)c(=O)n(C)c4=O)c3C)c2Cl)cc(F)c1CNC(C)(C)CO` [Example 2.057] yielded an IC50 below 0.01 µM. To `COc1cc(-c2cccc(-c3cccc(NC(=O)c4cn(C)c(=O)n(C)c4=O)c3C)c2Cl)cc(F)c1CN(C)CCO` [Example 2.058] belongs below 0.01 µM; to `COc1cc(-c2cccc(-c3cccc(NC(=O)c4cn(C)c(=O)n(C)c4=O)c3C)c2Cl)cc(F)c1CNCC1(C(N)=O)CC1` [Example 2.059], below 0.01 µM. To `COc1cc(-c2cccc(-c3cccc(NC(=O)c4cn(C)c(=O)n(C)c4=O)c3C)c2Cl)cc(F)c1CN[C@H]1CCC[C@@H]1O` [Example 2.060] belongs below 0.01 µM; to `COc1cc(-c2cccc(-c3cccc(NC(=O)c4cn(C)c(=O)n(C)c4=O)c3C)c2Cl)cc(F)c1CN(C)[C@H]1CNC(=O)C1` [Example 2.061], 0.01 to 1 µM; to `COc1cc(-c2cccc(-c3cccc(NC(=O)c4cn(C)c(=O)n(C)c4=O)c3C)c2Cl)cc(F)c1CN(C)[C@@H]1CCOC[C@@H]1O` [Example 2.062], below 0.01 µM.

In turn, `COc1cc(-c2cccc(-c3cccc(NC(=O)c4cn(C)c(=O)n(C)c4=O)c3Cl)c2Cl)cc(F)c1CNC(C)C` [Example 2.063] gave an IC50 below 0.01 µM.

`COc1cc(-c2cccc(-c3cccc(NC(=O)c4cn(C)c(=O)n(C)c4=O)c3C)c2Cl)cc(F)c1CNC(C)C` [Example 2.064] yielded an IC50 below 0.01 µM. In turn, `COc1cc(-c2cccc(-c3cccc(NC(=O)c4cn(C)c(=O)n(C)c4=O)c3Cl)c2Cl)cc(F)c1CN[C@@H]1CCOC1` [Example 2.065] showed an IC50 below 0.01 µM.

In turn, `COc1cc(-c2cccc(-c3cccc(NC(=O)c4cn(C)c(=O)n(C)c4=O)c3Cl)c2Cl)cc(F)c1CN[C@H]1CCOC1` [Example 2.066] came in with an IC50 below 0.01 µM. `COc1cc(-c2cccc(-c3cccc(NC(=O)c4cn(C)c(=O)n(C)c4=O)c3C)c2Cl)cc(F)c1CN[C@@H]1CCCOC1` [Example 2.067] showed a half-inhibitory concentration (IC50) below 0.01 µM.

`COc1cc(-c2cccc(-c3cccc(NC(=O)c4cn(C)c(=O)n(C)c4=O)c3Cl)c2Cl)cc(F)c1CN(C)[C@@H]1CNC(=O)C1` [Example 2.068] came in with an IC50 below 0.01 µM. To `COc1cc(-c2cccc(-c3cccc(NC(=O)c4cn(C)c(=O)n(C)c4=O)c3C)c2Cl)cc(F)c1CN(C)C1CCOCC1` [Example 2.069] belongs below 0.01 µM.
